Measured values reported in PubChem BioAssay (NCI).
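Here, GI50 denotes the concentration required for 50% inhibition of growth. TGI: total growth inhibition.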

Legend:
Test in all cases: NCI-60 cell line screen, 384-well format
[1] = test system: TK-10 renal
[2] = test system: LOX IMVI melanoma
[3] = test system: SF-295 CNS
[4] = test system: HCT-15 colon
[5] = test system: KM12 colon
[6] = test system: 786-0 renal
[7] = test system: HS 578T breast
[8] = test system: SF-268 CNS
[9] = test system: M14 melanoma
[10] = test system: HCT-116 colon
[11] = test system: SK-MEL-28 melanoma
[12] = test system: MDA-MB-435 melanoma
[13] = test system: DU-145 prostate
[14] = test system: NCI-H322M lung
[15] = test system: UACC-62 melanoma
[16] = test system: HT29 colon
[17] = test system: U251 glioblastoma
[18] = test system: K-562 leukemia
[19] = test system: SF-539 CNS
[20] = test system: T-47D breast
[21] = test system: IGROV1 ovarian
[22] = test system: SNB-75 CNS
[23] = test system: HL-60(TB) leukemia
[24] = test system: MCF7 breast
[25] = test system: HOP-62 NSCLC
[26] = test system: A498 renal
[27] = test system: MDA-MB-468 breast
[28] = test system: MDA-MB-231 breast
[29] = test system: HCC-2998 colon
[30] = test system: OVCAR-4 ovarian
[31] = test system: SW-620 colon
[32] = test system: SN12C renal
[33] = test system: A549 NSCLC
[34] = test system: NCI-H226 lung
[35] = test system: NCI-H23 lung
[36] = test system: OVCAR-3 ovarian
[37] = test system: BT-549 breast
[38] = test system: HOP-92 NSCLC
[39] = test system: NCI-H460 NSCLC
[40] = test system: MOLT-4 leukemia
[41] = test system: SK-OV-3 ovarian
[42] = test system: OVCAR-8 ovarian
[43] = test system: COLO 205 colon
[44] = test system: RPMI-8226 leukemia
[45] = test system: NCI/ADR-RES ovarian
[46] = test system: UO-31 renal
[47] = test system: PC-3 prostate
[48] = test system: SK-MEL-5 melanoma
[49] = test system: NCI-H522 lung
[50] = test system: EKVX NSCLC
[51] = test system: UACC-257 melanoma
[52] = test system: MALME-3M melanoma
[53] = test system: OVCAR-5 ovarian
[54] = test system: RXF 393 renal
[55] = test system: ACHN renal
[56] = test system: CCRF-CEM leukemia
[57] = test system: CAKI-1 renal
[58] = test system: SNB-19 CNS

Question: How did the GI50 [1] turn out when `O=C(c1ccc(F)c(F)c1Nc1ccc(I)cc1F)N1CC(O)([C@H]2CCCCN2)C1` was run?
Answer: 3120 nM

Question: And the TGI [1]?
Answer: 11800 nM

Question: And the GI50 [2]?
Answer: 389 nM

Question: What about the TGI [2] of the same compound?
Answer: 1660 nM

Question: What about the GI50 [3] of the same compound?
Answer: 13400 nM

Question: What about the TGI [3] of the same compound?
Answer: 26300 nM

Question: What about the GI50 [4] of the same compound?
Answer: 3330 nM

Question: And the TGI [4]?
Answer: 14500 nM

Question: What about the GI50 [5] of the same compound?
Answer: 660 nM

Question: And the TGI [5]?
Answer: 2750 nM

Question: And the GI50 [6]?
Answer: 1240 nM

Question: And the TGI [6]?
Answer: 2590 nM

Question: And the GI50 [7]?
Answer: 4160 nM

Question: And the TGI [7]?
Answer: 16300 nM

Question: What about the GI50 [8] of the same compound?
Answer: 1700 nM

Question: What about the TGI [8] of the same compound?
Answer: 5370 nM

Question: And the GI50 [9]?
Answer: 51.2 nM

Question: What about the TGI [9] of the same compound?
Answer: 220 nM

Question: What about the GI50 [10] of the same compound?
Answer: 615 nM

Question: And the TGI [10]?
Answer: 2060 nM

Question: What about the GI50 [11] of the same compound?
Answer: 187 nM

Question: What about the TGI [11] of the same compound?
Answer: 528 nM

Question: And the GI50 [12]?
Answer: 415 nM

Question: And the TGI [12]?
Answer: 11600 nM

Question: What about the GI50 [13] of the same compound?
Answer: 3810 nM

Question: What about the TGI [13] of the same compound?
Answer: 14800 nM

Question: What about the GI50 [14] of the same compound?
Answer: 1510 nM

Question: What about the TGI [14] of the same compound?
Answer: 13700 nM

Question: What about the GI50 [15] of the same compound?
Answer: 104 nM

Question: And the TGI [15]?
Answer: 378 nM

Question: And the GI50 [16]?
Answer: 185 nM

Question: What about the TGI [16] of the same compound?
Answer: 1350 nM

Question: What about the GI50 [17] of the same compound?
Answer: 2570 nM

Question: And the TGI [17]?
Answer: 11300 nM

Question: What about the GI50 [18] of the same compound?
Answer: 1170 nM

Question: What about the TGI [18] of the same compound?
Answer: 2420 nM

Question: What about the GI50 [19] of the same compound?
Answer: 1620 nM

Question: What about the TGI [19] of the same compound?
Answer: 3020 nM

Question: And the GI50 [20]?
Answer: 2650 nM

Question: And the TGI [20]?
Answer: 6460 nM

Question: And the GI50 [21]?
Answer: 500 nM

Question: And the TGI [21]?
Answer: 2990 nM

Question: And the GI50 [22]?
Answer: 1620 nM

Question: What about the TGI [22] of the same compound?
Answer: 4340 nM

Question: What about the GI50 [23] of the same compound?
Answer: 212 nM

Question: What about the TGI [23] of the same compound?
Answer: 1260 nM

Question: What about the GI50 [24] of the same compound?
Answer: 1880 nM

Question: What about the TGI [24] of the same compound?
Answer: 3620 nM

Question: And the GI50 [25]?
Answer: 1280 nM

Question: What about the TGI [25] of the same compound?
Answer: 8420 nM

Question: What about the GI50 [26] of the same compound?
Answer: 1220 nM

Question: What about the TGI [26] of the same compound?
Answer: 2500 nM

Question: What about the GI50 [27] of the same compound?
Answer: 2730 nM

Question: And the TGI [27]?
Answer: 5070 nM

Question: And the GI50 [28]?
Answer: 477 nM

Question: What about the TGI [28] of the same compound?
Answer: 3630 nM

Question: What about the GI50 [29] of the same compound?
Answer: 200 nM

Question: And the TGI [29]?
Answer: 1210 nM

Question: What about the GI50 [30] of the same compound?
Answer: 10400 nM

Question: And the TGI [30]?
Answer: 22200 nM

Question: What about the GI50 [31] of the same compound?
Answer: 371 nM

Question: What about the TGI [31] of the same compound?
Answer: 10400 nM

Question: And the GI50 [32]?
Answer: 1520 nM

Question: And the TGI [32]?
Answer: 13200 nM

Question: What about the GI50 [33] of the same compound?
Answer: 807 nM

Question: And the TGI [33]?
Answer: 2610 nM

Question: What about the GI50 [34] of the same compound?
Answer: 1640 nM

Question: What about the TGI [34] of the same compound?
Answer: 10200 nM

Question: What about the GI50 [35] of the same compound?
Answer: 422 nM

Question: And the TGI [35]?
Answer: 2050 nM

Question: And the GI50 [36]?
Answer: 3430 nM

Question: And the TGI [36]?
Answer: 13700 nM

Question: What about the GI50 [37] of the same compound?
Answer: 2250 nM

Question: And the TGI [37]?
Answer: 5840 nM

Question: And the GI50 [38]?
Answer: 888 nM

Question: What about the TGI [38] of the same compound?
Answer: 2170 nM

Question: And the GI50 [39]?
Answer: 995 nM

Question: What about the TGI [39] of the same compound?
Answer: 2280 nM

Question: And the GI50 [40]?
Answer: 1620 nM

Question: What about the TGI [40] of the same compound?
Answer: 3000 nM

Question: What about the GI50 [41] of the same compound?
Answer: 4990 nM

Question: What about the TGI [41] of the same compound?
Answer: 17800 nM

Question: And the GI50 [42]?
Answer: 6520 nM

Question: And the TGI [42]?
Answer: 19600 nM

Question: And the GI50 [43]?
Answer: 101 nM

Question: And the TGI [43]?
Answer: 589 nM

Question: And the GI50 [44]?
Answer: 1780 nM

Question: And the TGI [44]?
Answer: 4380 nM

Question: What about the GI50 [45] of the same compound?
Answer: 9210 nM

Question: What about the TGI [45] of the same compound?
Answer: 21300 nM

Question: And the GI50 [46]?
Answer: 1610 nM

Question: And the TGI [46]?
Answer: 5390 nM

Question: What about the GI50 [47] of the same compound?
Answer: 5640 nM

Question: And the TGI [47]?
Answer: 16800 nM

Question: And the GI50 [48]?
Answer: 281 nM

Question: What about the TGI [48] of the same compound?
Answer: 1620 nM

Question: What about the GI50 [49] of the same compound?
Answer: 4330 nM

Question: And the TGI [49]?
Answer: 16900 nM

Question: What about the GI50 [50] of the same compound?
Answer: 2750 nM

Question: And the TGI [50]?
Answer: 12600 nM

Question: What about the GI50 [51] of the same compound?
Answer: 156 nM

Question: And the TGI [51]?
Answer: 428 nM

Question: And the GI50 [52]?
Answer: 31.8 nM

Question: What about the TGI [52] of the same compound?
Answer: 118 nM

Question: And the GI50 [53]?
Answer: 668 nM

Question: What about the TGI [53] of the same compound?
Answer: 11900 nM

Question: And the GI50 [54]?
Answer: 1510 nM

Question: What about the TGI [54] of the same compound?
Answer: 3180 nM

Question: And the GI50 [55]?
Answer: 1870 nM

Question: And the TGI [55]?
Answer: 15400 nM

Question: And the GI50 [56]?
Answer: 1930 nM

Question: And the TGI [56]?
Answer: 3570 nM

Question: What about the GI50 [57] of the same compound?
Answer: 994 nM

Question: And the TGI [57]?
Answer: 14400 nM

Question: What about the GI50 [58] of the same compound?
Answer: 4050 nM

Question: What about the TGI [58] of the same compound?
Answer: 17300 nM
